Assay results reported in patent US4895846A, “Pharmaceutically useful dihydropyridinyldicarboxylate amides and esters incorporating arylpiperazinylalkyl moieties” (Bristol-Myers Company, priority 1987, dated 1990).
Values after ≈ are worked out from the molar mass of the structure shown.

What was measured:
[1] = tested on: normotensive and spontaneously hypertensive conscious rats; experiment: Oral administration to normotensive and spontaneously hypertensive conscious rats, mean arterial blood pressure; format: in vivo, rat; details: for maximal mean arterial blood pressure reduction: oral
Procedure: In vivo testing included vasodilating results in the ganglion-blocked, angiotensin-II supported rat and antihypertensive screening in either the spontaneous hypertensive rat (SHR) or DOCA salt rats. In general, vasodilating activity paralleled calcium blocking activity for members of the instant series. […] A most preferred compound, BMY 20064 [drawing 21] was administered orally to both normotensive and spontaneously hypertensive conscious rats. Doses of 1 and 10 mg/kg elicited maximal mean arterial blood pressure reductions of 25 and 53 mmHg, respectively, in the normotensive rat group and 34 and 100 mmHg, respectively, in the spontaneously hypertensive rat group.

[2] = tested on: blood platelets in platelet rich plasma; experiment: Collagen aggregation of blood platelets in platelet rich plasma; format: cell-based; details: Oryctolagus cuniculus; platelet rich plasma (rabbit)

Row | Compound | onset of mean arterial blood pressure response ([1]; both groups (normotensive and SHR), oral 1 and 10 mg/kg) [min] | persistence of mean arterial blood pressure response ([1]; both groups, after the higher dose (10 mg/kg oral)) [h] | maximal mean arterial blood pressure reduction ([1]; normotensive conscious rats, 1 mg/kg) [mmHg] | maximal mean arterial blood pressure reduction ([1]; normotensive conscious rats, 10 mg/kg) [mmHg] | maximal mean arterial blood pressure reduction ([1]; spontaneously hypertensive conscious rats, 1 mg/kg) [mmHg] | maximal mean arterial blood pressure reduction ([1]; spontaneously hypertensive conscious rats, 10 mg/kg) [mmHg] | EC50 [2] [µg/mL]
1 | COC(=O)C1=C(C)NC(C)=C(C(=O)OCCCN2CCN(c3ccccc3OC)CC2)C1c1cccc([N+](=O)[O-])c1 (stereo not drawn) [BMY 20064] | < 10 | > 4 | 25 | 53 | 34 | 100 | 11 (≈ 19.5 µM)
2 | COC(=O)C1=C(C)NC(C)=C(C(=O)OC)C1c1ccccc1[N+](=O)[O-] [Nifedipine, 4-(2'-nitrophenyl)-2,6-dimethyl-3,5-dicarbomethoxy-1,4-dihydropyridine] | – | – | – | – | – | – | 176 (≈ 508 µM)
3 | COc1ccc(CCN(C)CCCC(C#N)(c2ccc(OC)c(OC)c2)C(C)C)cc1OC (stereo not drawn) [Verapamil] | – | – | – | – | – | – | 151 (≈ 332 µM)
